In the NIST ThermoML archive (doi:10.1021/je7007523):
Values joined by “and” are separate entries in the source; they are usually repeats but may differ in a detail not shown here. Equal values may be shown once. Numbers after ± are expanded uncertainties.

Conditions: 313.15 K; Liquid; Ebulliometric method (Recirculating still)

| SMILES | vapor or sublimation pressure |
| --- | --- |
| CCCCCCC [heptane] | 12.33 ± 0.088 kPa and 12.33 ± 0.087 kPa |
| C1CCCCC1 [cyclohexane] | 24.61 ± 0.14 kPa and 24.62 ± 0.14 kPa |
| C=CCCCC [hex-1-ene] | 44.95 ± 0.22 kPa |
